In patent US11332494B2, “Nanoemulsions and methods for cancer therapy” (Fernando Thome Kreutz, priority 2016, dated 2022) one finds IC50 data, which are given here for seven compounds.

Where two headings read alike, the source gives them in different places.

Assay in all cases: Cell viability assay (Hoechst 33342/PI, ImageXpress)
Holding throughout (type): cell-based

In one assay the test system is A172. Conditions: A 172; A172, human brain glioblastoma; Table 2. The procedure: (§1) The purity of each oxysterol was determined to be 98% by GS/MS. For all experiments, a stock solution was prepared at a concentration of 1000 μM in absolute ethanol. The concentrations used in the experiments were in the range of those described to induce cell death on several cell lines. For the experiments, cells were plated at a density of 1.5×10^3 cells/[…] in triplicate in 96-well Black Flat Bottom Polystyrene Microplates (Corning, Mass.) and incubated in CO2 atmosphere. Several concentrations of each oxysterol (0 to 100 μM, 200 μL final volume) were added to the media, followed by incubation for 24 h. At the end of this experimental period, several parameters were determined in each of the three samples, as described hereafter.
(§2) After 24 h cells were incubated with Hoechst 33342 (0.1 μg/mL) and 0.5 μl propidium iodide (PI) for 15 min. ImageXpress Micro high content screening system (Molecular Devices, Sunnyvale, Calif.) was used to determine the number of live and death cells. Nine sites per well and three wells per treatment were acquired. Cell Scoring MetaXpress software was used to analyze the number of cells and the viability. For IC50 calculations, survival data were evaluated by variable slope curve-fitting with GraphPad Prism.

The subject of the next assay is HeLa. As to conditions: human cervix adenocarcinoma, Table 2. The procedure: as §1, §2
A further assay has as its system HepG-2. As to conditions: HepG2; HepG-2, human hepatocellular carcinoma; Table 2. How it is done:
as §1, §2

A further assay has as its system Jurkat. Conditions: human acute T cell leukemia, Table 2. How it is done:
as §1, §2

Another assay concerns MRC-5. As to conditions: MRC5; MRC-5, human lung normal; Table 2. The procedure: as §1, §2
In a further assay the test system is Molt-4. Conditions: Molt-4, human acute lymphoblastic leukemia; Table 2. How it is done: as §1, §2
The subject of a further assay is PC-3. Conditions: PC-3, human prostate grade IV adenocarcinoma; Table 2. How it is done:
as §1, §2

The subject of another assay is Raji. Conditions: human Burkitt's lymphoblast, Table 2. How it is done: as §1, §2
In another assay the test system is T98G. Conditions: human brain glioblastoma, Table 2. The procedure: as §1, §2
A further assay deals with U87-MG. Conditions: U-87 MG, human glioblastoma astrocytoma, Table 2. How it is done:
as §1, §2

Another assay relates to B16-F10 cell line. As to conditions: Mus musculus. How it is done:
as §1, with “Several concentrations of each oxysterol (0 to 100 μM, 200 μL final volume) were added to the media, followed by incubation for 24 h.” left out
as §2

The subject of the next assay is MDA-MB-321 cell line. How it is done: as §1, with “Several concentrations of each oxysterol (0 to 100 μM, 200 μL final volume) were added to the media, followed by incubation for 24 h.” left out
as §2

The subject of a further assay is HUV-EC. As to conditions: Homo sapiens, HUVEC, Table 4, time and unit inferred. How it is done:
as §1, with “hereafter. After 24 h cells were incubated with Hoechst 33342 (0.1 μg/mL) and 0.5 μl propidium iodide (PI) for 15 min. ImageXpress Micro high content screening system (Molecular Devices, Sunnyvale, Calif.) was used to determine the number of live and death cells. Nine sites per well and three wells per treatment were acquired. Cell Scoring MetaXpress software was used to analyze the number of cells and the viability. For IC50 calculations, survival data were evaluated by variable slope curve-fitting with GraphPad Prism.” for “hereafter.”

The test system of a further assay is LL 24. As to conditions: LL24, Table 4, time and unit inferred. How it is done: as §1, with “hereafter. After 24 h cells were incubated with Hoechst 33342 (0.1 μg/mL) and 0.5 μl propidium iodide (PI) for 15 min. ImageXpress Micro high content screening system (Molecular Devices, Sunnyvale, Calif.) was used to determine the number of live and death cells. Nine sites per well and three wells per treatment were acquired. Cell Scoring MetaXpress software was used to analyze the number of cells and the viability. For IC50 calculations, survival data were evaluated by variable slope curve-fitting with GraphPad Prism.” for “hereafter.”

Setting [1] is: B16-F10, 24 h, Table 3, read-out: B16-F10 cell line IC50 (uM) 24 h.
Setting [2] is: B16-F10, 48 h, Table 3, read-out: B16-F10 cell line IC50 (uM) 48 h.
The mark [3] stands for this setting: B16-F10, 72 h, Table 3, read-out: B16-F10 cell line IC50 (uM) 72 h.
Setting [4] is: B16 F10, Table 4, time and unit inferred, read-out: IC50 B16 F10.
Where [5] appears, read: MDA-MB-321, 24 h, Table 3, read-out: MDA-MB-321 cell line IC50 (uM) 24 h.
[6] abbreviates: MDA-MB-321, 48 h, Table 3, read-out: MDA-MB-321 cell line IC50 (uM) 48 h.
Setting [7] is: MDA-MB-321, 72 h, Table 3, read-out: MDA-MB-321 cell line IC50 (uM) 72 h.
Setting [8] is: MDA-MB-321, Table 4, time and unit inferred, read-out: IC50 MDA-MB-321.

Regarding `CC(C)CCCC(C)C1CCC2C3CC(O)C4(O)CC(O)CC[C@]4(C)C3CC[C@]12C` (stereo in doubt) [Ox-2, Cholestane-3α-5β-6α-triol], the IC50 worked out at 23.6 µM in the assay with A172; 19.9 µM in the assay with HeLa; 19 µM in the assay with HepG-2; 46.6 µM with Jurkat; 47.5 µM with MRC-5; 12.3 µM with Molt-4. Moreover, the IC50 with PC-3 came out at 21 µM; with Raji, 39 µM; in the assay on T98G it was 27.5 µM; in the assay on U87-MG, 29.8 µM; with B16-F10 cell line (setting [1]), 18.1 µM; in the assay with B16-F10 cell line (setting [2]), 21.4 µM. Also, the IC50 with B16-F10 cell line (setting [3]) was found to be 15.4 µM; in the assay with B16-F10 cell line (setting [4]), 41.3 µM; in the assay on MDA-MB-321 cell line (setting [5]) it was 7.9 µM; in the assay on MDA-MB-321 cell line (setting [6]), 21.1 µM; with MDA-MB-321 cell line (setting [7]), 25.2 µM; in the assay with MDA-MB-321 cell line (setting [8]), 37.5 µM. For the same compound, the IC50 in the assay on HUV-EC worked out at 73.6 µM; in the assay with LL 24, 38.4 µM.
For `CC(C)CCCC(C)C1CCC2C3CC(O)C4CC(O)CC[C@]4(C)C3CC[C@]12C` (stereo in doubt) [Ox-4, (3α,5β,6α)-cholestane-3,6-diol], the IC50 with B16-F10 cell line (setting [1]) is 58.3 µM; with B16-F10 cell line (setting [2]) it was 52.9 µM; in the assay on B16-F10 cell line (setting [3]), 82.6 µM; in the assay on B16-F10 cell line (setting [4]) it was 42.4 µM; in the assay on MDA-MB-321 cell line (setting [5]) it was 66.6 µM; in the assay on MDA-MB-321 cell line (setting [6]) it was 39.7 µM. Also, the concentration for half-maximal inhibition (IC50) in the assay on MDA-MB-321 cell line (setting [7]) turned out to be 35.3 µM; in the assay on MDA-MB-321 cell line (setting [8]), 59 µM; with LL 24, 28.3 µM.
In the case of `CC(C)CCC[C@@H](C)[C@H]1CC[C@H]2[C@@H]3C(=O)C=C4C[C@@H](O)CC[C@]4(C)[C@H]3CC[C@]12C` [Ox-1, 7-Ketocholesterol], the half-inhibitory concentration (IC50) with A172 is 15.6 µM; in the assay on HeLa it was 33.2 µM; in the assay on HepG-2, 42.5 µM; with Jurkat, 55.8 µM; with MRC-5, 78.6 µM; in the assay with Molt-4, 38 µM. The IC50 in the assay on PC-3 amounted to 19.2 µM; in the assay with Raji, 63.3 µM; in the assay with U87-MG it was 55.6 µM; in the assay on B16-F10 cell line (setting [1]) it was 19.9 µM; in the assay on B16-F10 cell line (setting [2]), 21.7 µM; in the assay with B16-F10 cell line (setting [3]), 29.6 µM. Moreover, the IC50 in the assay on B16-F10 cell line (setting [4]) is 35.6 µM; with MDA-MB-321 cell line (setting [5]), 54.4 µM; with MDA-MB-321 cell line (setting [6]), 50.4 µM; in the assay on MDA-MB-321 cell line (setting [7]) it was 48.1 µM; in the assay on MDA-MB-321 cell line (setting [8]), 37.6 µM; with HUV-EC it was 39.4 µM. For the same compound, the IC50 in the assay on LL 24 was found to be 49.5 µM.
Turning to `CC(C)CCC[C@H](C)C1CCC2C3C(=O)C=C4C=CCC[C@]4(C)C3CC[C@@]21C` (stereo partly shown) [Ox-3, 3,5-cholestan-7-one], the values for the IC50 with B16-F10 cell line (setting [2]), in the assay on B16-F10 cell line (setting [3]) and in the assay on B16-F10 cell line (setting [4]) were 377 µM, 52.9 µM and 118 µM, respectively.
Take `CC(=O)O[C@H]1CC[C@@]2(C)C(=CC[C@H]3[C@@H]4CC[C@H]([C@H](C)CCCC(C)C)[C@@]4(C)CC[C@@H]32)C1` [Ox-5, Cholesteryl acetate]: the IC50 in the assay on MDA-MB-321 cell line (setting [7]) is 89.8 µM.
Consider `CC(=O)O[C@H]1CC[C@@]2(C)C(=CC(=O)[C@H]3[C@@H]4CC[C@H]([C@H](C)CCCC(C)C)[C@@]4(C)CC[C@@H]32)C1` [Ox-6, 7-oxocholest-5-en-3-β-yl acetate], for which the IC50 in the assay with MDA-MB-321 cell line (setting [6]) amounted to 8560 µM; in the assay on MDA-MB-321 cell line (setting [7]), 829 µM.
Regarding `CC(C)CCC[C@@H](C)[C@H]1CC[C@H]2[C@@H]3C(=O)[C@@H]4O[C@@]45C[C@@H](O)CC[C@]5(C)[C@H]3CC[C@]12C` [Ox-8, (3α,5β,6α)-3-OH-5,6-epoxycholestan-7-one], the IC50 with B16-F10 cell line (setting [4]) is 37 µM; with MDA-MB-321 cell line (setting [8]), 40 µM; in the assay with HUV-EC it was 35.2 µM; in the assay on LL 24, 46.5 µM.

The IC50 is the concentration at which inhibition is half-maximal.
